Assay results reported in patent US20080221052A1, “Modulation of Wrn-Mediated Telomere-Initiated Cell Signaling” (priority 2004, published 2008).
{P} = phosphate

What was measured:
S91 mouse melanoma cells = assay: Melanin content of S91 mouse melanoma cells; type: cell-based; conditions: 6 days
Protocol: FIG. 4 is a bar graph showing the melanin content (in pg/cell) of cells treated with diluent, pTpT or pTspT.
FIG. 5 is a bar graph showing the melanin content (in pg/cell) of cells treated with diluent, 11 mer-1 or 11 mer-1-S.
Cultures of S91 mouse melanoma cells (100,000 cells/38 cm^2) were treated with 100 μM pTpT or phosphorothioate pTpT (pTspT) (FIG. 4) or 40 μM 11 mer-1 or the phosphorothioate 11 mer-1 (11 mer-1-S) (FIG. 5) for 6 days and were then collected, counted and assayed for melanin content.

DNA-PKCS = assay: Western blot with antibody against ATM phosphoserine 1981 in normal newborn fibroblasts; type: cell-based; conditions: 40 μM, 4-48 hours
Protocol: The positions of ATM and DNA-PKCS are indicated. Sham and irradiated (10 Gy IR) fibroblasts were included as controls.
Normal newborn fibroblasts were treated with 40 μM T-oligo or an equal volume of diluent for 4, 6, 8, 16, 24 or 48 hours then collected and analyzed by Western blot using an antibody against ATM phosphoserine 1981. […] The phosphorylated protein was shown in subsequent experiments to co-migrate with the catalytic subunit of ATM-related DNA-dependent protein kinase (DNA-PKCS), which would reasonably be expected to bind an antibody raised against the highly homologous ATM protein.

Jurkat cells = assay: FACS analysis of propidium iodide stained Jurkat cells (S phase, sub-G0/G1 apoptosis); type: cell-based, human
Protocol: FIGS. 1A-1H show FACS analysis of propidium iodide stained Jurkat cells (immortalized T lymphocytes), treated with diluent (FIGS. 1A and 1E); 40 μM 11 mer-1 pGTTAGGGTTAG (SEQ ID NO: 2) (FIGS. 1B and 1F); 40 μM 11 mer-2 pCTAACCCTAAC (SEQ ID NO: 3) (FIGS. 1C and 11G); 40 μM 11 mer-3 pGATCGATCGAT (SEQ ID NO: 4) (FIGS. 1D and 1H). Jurkat cells were treated with the stated reagents for 48 hours before analysis (FIG. 1A-1D) or 72 hours (FIGS. 1E-1H).
FIGS. 2A-2F are profiles showing the results of fluorescence activated cell sorting, for the following additions to the cells: FIG. 2A, diluent; FIG. 2B, 0.4 μM 11 mer-1; FIG. 2C, 0.4 μM 11 mer-1-S; FIG. 2D, diluent; FIG. 2E, 40 μM 11 mer-1; FIG. 2F, 40 μM 11 mer-1-S.
Oligonucleotides homologous to the telomere overhang repeat sequence (TTAGGG; SEQ ID NO: 1), sequence (11 mer-1: pGTTAGGGTTAG; SEQ ID NO: 2), complementary to this sequence (11 mer-2: pCTAACCCTAAC; SEQ ID NO: 3) and unrelated to the telomere sequence (11 mer-3: pGATCGATCGAT; SEQ ID NO: 4) were added to cultures of Jurkat cells, a line of human T cells reported to undergo apoptosis in response to telomere disruption. Within 48 hours, 50% of the cells treated with 40 μM of SEQ ID NO: 2 had accumulated in the S phase, compared to 25-30% for control cells (p<0.0003, non-paired t-test; see FIGS. 1A-1D), and by 72 hours, 13% of these cells were apoptotic as determined by a sub-G0/G1 DNA content, compared to 2-3% of controls (p<0.007, non-paired t-test; see FIGS. 1E-1H). At 96 hours, 20±3% of the 11 mer-1 treated cells were apoptotic compared with 3-5% of controls (p<0.0001, non-paired t-test). To exclude preferential uptake of the 11 mer-1 as an explanation of its singular effects, Jurkat cells were treated with oligonucleotides labeled on the 3′ end with fluorescein phosphoramidite, then subjected to confocal microscopy and FACS analysis. The fluorescence intensity of the cells was the same after all treatments at 4 hours and 24 hours.
Cultures of Jurkat human T cells were treated with either diluent, 11 mer-1 (SEQ ID NO: 1) or the phosphorothioate 11 mer-1 (11 mer-1-S) for 96 hours, then collected and processed for FACS analysis. Two concentrations of the oligonucleotides were tested, 0.4 μM (FIGS. 2A-2C) and 40 μM (FIGS. 2D-2F).

WRN = biological target: T1, WRN (Homo sapiens, UniProt Q14191); assay: WRN siRNA knock-down and T-oligo response, western blot in normal neonatal fibroblasts; type: cell-based; conditions: 40 μM T-oligo, 24 or 48 hours, WRN siRNA-treated cells
T1 construct: endogenous in cells; host or cells: normal neonatal fibroblasts
Protocol: Protein level of WRN on the day of T-oligo treatment is indicated at “0 Hrs”. T-oligo (40 μM, T) or diluent (D) were added and cells collected after 24 or 48 hours for western analysis. Control fibroblasts were either sham (IR, −) or irradiated with 10 Gy IR (IR, +) and collected after one hour. The western blot was probed with antibodies, recognizing WRN, p53 phosphoserine 15 or phospho H2AX.
Normal neonatal fibroblasts were treated on 2 consecutive days with 50 ρmol of WRN siRNA or […] of siRNA directed against the control green fluorescent protein (GFP). One day after the second siRNA treatment, representative cultures were collected for western blot analysis to assess the effectiveness of the WRN siRNA in eliminating the protein. Also at this time, duplicate cultures of WRN siRNA-treated or GFP siRNA-treated cultures were given either 40 μM T-oligo (11 mer-1; SEQ ID NO: 2) or an equal amount of diluent. Cells from all conditions were collected one or two days after the addition of T-oligo or diluent and were analyzed by western blot for p53 phosphorylation on serine 15 and phosphorylation of histone H2AX, both well-documented DNA damage responses (Lambert et al., 1998, J Biol Chem 273, 33048-53; Burma et al., 2001, J Biol Chem 276, 42462-7). Also as controls, cell lysates from cells sham-irradiated or irradiated with 10 Gy ionizing radiation (1R) were included. […]

p53 serine 37 = assay: Western analysis of p53 phosphorylated on serine 37 in newborn fibroblasts; type: cell-based; conditions: 40 μM
[1] = test system: keratinocyte cell line (SSC12F); assay: S-phase arrest by FACS in keratinocyte cell line; type: cell-based; conditions: 48 hours, 11 mer-1 alone (10 μM per FIG. 3B); diluent control 26%
Protocol: FIGS. 3A-3G are profiles showing the results of fluorescence activated cell sorting, for the following additions to the cells: FIG. 3A, diluent; FIG. 3B, 10 μM 11 mer-1; FIG. 3C, 10 μM 11 mer-1 and 1 μM 11 mer-1-S; FIG. 3D, 10 μM 11 mer-1 and 5 μM 11 mer-1-S; FIG. 3E, 10 μM 11 mer-1 and 10 μM 11 mer-1-S; FIG. 3F, 20 μM 1 mer-1-S; FIG. 3G, 10 μM 11 mer-1-S.
Forty-three percent of the cells were in the S phase, compared to 26% of the control, diluent-treated cells.

[2] = test system: p53, E2F1 transcription factor; assay: Western analysis of p53 and E2F1 in Jurkat cells; type: cell-based, human; conditions: by 24 hours after addition
S91 cells = assay: UV-induced melanogenesis in S91 cells (melanin content, OD 475 nm); type: cell-based, mouse; conditions: 100 μM, one week
Text: FIG. 6 is a bar graph showing the melanin content (in pg/cell) of cells that have been sham-treated (no irradiation, no oligonucleotides), or treated with ultraviolet light (UV), or unirradiated but given pTspT, or irradiated with UV and given pTspT.
Duplicate cultures of S91 cells (100,000 cells/39 cm^2) were either sham-irradiated or irradiated with 5 mJ/cm^2 solar-simulated light from a 1 kW xenon arc solar-simulator (XMN 1000-21, Optical Radiation, Azuza, Calif.) metered at 285 5 nm using a research radiometer (model IL1700A, International Light, Newburyport, Mass.). Two sham-irradiated plates were then supplemented with 100 μM pTspT and two irradiated cultures were similarly treated with pTspT. After one week, cells were collected, counted and analyzed for melanin content by dissolving the cell pellets in 1 N NaOH and measuring the optical density at 475 nm. […] However, this response was blocked by the addition of pTspT (FIG. 6). In addition, the constitutive pigmentation of these cells was reduced by the pTspT in the sham-irradiated cultures, similar to the data presented in FIGS. 4 and 5.

T1 sequence (Q14191 whole entry): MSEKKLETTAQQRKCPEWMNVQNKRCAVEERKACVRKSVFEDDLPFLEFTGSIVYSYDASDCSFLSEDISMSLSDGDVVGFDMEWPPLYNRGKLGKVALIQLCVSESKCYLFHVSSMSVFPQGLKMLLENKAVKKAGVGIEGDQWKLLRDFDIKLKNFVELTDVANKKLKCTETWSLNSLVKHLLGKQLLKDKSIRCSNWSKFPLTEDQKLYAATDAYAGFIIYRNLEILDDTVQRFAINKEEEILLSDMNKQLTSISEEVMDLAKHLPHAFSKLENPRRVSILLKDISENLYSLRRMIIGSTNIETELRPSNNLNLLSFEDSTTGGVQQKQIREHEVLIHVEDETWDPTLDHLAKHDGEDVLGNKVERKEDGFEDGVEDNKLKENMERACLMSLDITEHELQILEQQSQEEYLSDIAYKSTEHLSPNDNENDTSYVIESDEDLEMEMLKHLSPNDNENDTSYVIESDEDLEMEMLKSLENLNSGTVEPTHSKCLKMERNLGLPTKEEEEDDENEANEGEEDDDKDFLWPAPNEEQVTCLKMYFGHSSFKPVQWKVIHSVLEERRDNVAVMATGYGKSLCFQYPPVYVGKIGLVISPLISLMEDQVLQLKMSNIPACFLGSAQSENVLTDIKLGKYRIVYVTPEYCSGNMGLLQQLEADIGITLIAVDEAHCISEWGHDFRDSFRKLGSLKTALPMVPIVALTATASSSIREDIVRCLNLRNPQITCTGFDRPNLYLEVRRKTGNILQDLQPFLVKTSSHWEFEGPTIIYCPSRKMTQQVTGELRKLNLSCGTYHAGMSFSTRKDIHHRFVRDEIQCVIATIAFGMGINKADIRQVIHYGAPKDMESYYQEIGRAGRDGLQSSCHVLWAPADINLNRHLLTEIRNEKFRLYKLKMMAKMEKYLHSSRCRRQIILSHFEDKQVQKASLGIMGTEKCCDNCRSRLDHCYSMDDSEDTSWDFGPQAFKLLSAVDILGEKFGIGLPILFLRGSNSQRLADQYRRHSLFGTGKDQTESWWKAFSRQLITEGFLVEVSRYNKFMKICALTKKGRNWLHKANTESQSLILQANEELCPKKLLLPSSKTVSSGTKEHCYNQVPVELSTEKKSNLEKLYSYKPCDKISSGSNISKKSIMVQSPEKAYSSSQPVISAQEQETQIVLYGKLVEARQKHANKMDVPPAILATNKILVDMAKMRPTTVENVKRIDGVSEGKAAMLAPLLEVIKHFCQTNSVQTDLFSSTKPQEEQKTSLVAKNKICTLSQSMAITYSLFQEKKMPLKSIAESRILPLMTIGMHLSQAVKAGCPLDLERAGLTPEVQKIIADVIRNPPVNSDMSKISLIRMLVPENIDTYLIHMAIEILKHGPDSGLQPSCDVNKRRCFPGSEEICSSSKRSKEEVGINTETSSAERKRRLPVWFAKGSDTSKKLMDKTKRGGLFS

pGTTAGGGTTAG (DNA, 5' {P}, backbone not given here) [11 mer-1]
stimulation of melanogenesis (melanin content) (S91 mouse melanoma cells; 40 μM): stimulated melanogenesis
phosphorylation of 450 kDa protein (DNA-PKCS) (DNA-PKCS): leads to phosphorylation
effect on exponentially growing cell cycle profile (Jurkat cells; 0.4 μM, 96 hours): neither of the oligonucleotides affected
apoptotic cells (sub-G0/G1 DNA content) (Jurkat cells; 40 μM, 72 hours, controls 2-3%): 13%
apoptosis (sub-G0/G1 peak) (Jurkat cells; 40 μM, 96 hours): induced extensive apoptosis
cells accumulated in the S phase (Jurkat cells; 40 μM, within 48 hours, control cells 25-30%): 50%
apoptotic cells (Jurkat cells; 96 hours, controls 3-5%): 20±3%
ability to induce phosphorylation of H2AX after WRN knock-down (WRN): dramatically reduced
ability to induce phosphorylation of p53 (serine 15) after WRN knock-down (WRN): dramatically reduced
phosphorylation of p53 serine 37 (p53 serine 37): phosphorylated
cells in the S phase [1]: Forty-three
level of the E2F1 transcription factor [2]: concomitant increase
p53 level [2]: increase

pTpT
stimulation of melanogenesis (melanin content) (S91 mouse melanoma cells; 100 μM): stimulated melanogenesis

pTspT
constitutive pigmentation (S91 mouse melanoma cells; 100 μM): reduced the constitutive pigmentation
stimulation of melanogenesis (melanin content) (S91 mouse melanoma cells; 100 μM): did not
UV-induced doubling of melanin content (S91 cells; 5 mJ/cm^2 solar-simulated light): blocked
constitutive pigmentation (S91 cells; sham-irradiated cultures): reduced
